The text below walks through data of ChEMBL document CHEMBL1147166, “Structure-activity relationships of methoctramine-related polyamines as muscarinic antagonist: effect of replacing the inner polymethylene chain with cyclic moieties” (Bioorg Med Chem, 2007).

Assay [1] relates to Mus musculus. In words: Antinociceptive activity in mouse assessed as licking latency at 1.0 ug, icv after 60 mins by hot plate method. It is filed as functional.
Assay [2] concerns Mus musculus. In words: Antinociceptive activity in mouse assessed as licking latency at 0.03 ug, icv after 15 mins by hot plate method. It is filed as functional.
In assay [3] the test system is Mus musculus. In words: Antinociceptive activity in mouse assessed as licking latency at 0.1 ug, icv after 15 mins by hot plate method. It counts as functional. (Thermal pain tests record how soon the animal reacts.)
Assay [4] deals with Mus musculus. As to the kind of experiment: Antinociceptive activity in mouse assessed as licking latency at 0.3 ug, icv after 15 mins by hot plate method. It is filed as functional.
Assay [5] concerns Mus musculus. As to the kind of experiment: Antinociceptive activity in mouse assessed as licking latency at 10 ug, icv after 15 mins by hot plate method. It is filed as functional.
The subject of assay [6] is Mus musculus. In words: Antinociceptive activity in mouse assessed as licking latency at 0.3 ug, icv after 30 mins by hot plate method. It counts as functional.
In assay [7] the test system is Mus musculus. In words: Antinociceptive activity in mouse assessed as licking latency at 10 ug, icv after 30 mins by hot plate method. It is filed as functional.
For assay [8], the target named is T1, Muscarinic acetylcholine receptor M2 (Homo sapiens) (UniProt P08172).
T1 sequence (whole entry): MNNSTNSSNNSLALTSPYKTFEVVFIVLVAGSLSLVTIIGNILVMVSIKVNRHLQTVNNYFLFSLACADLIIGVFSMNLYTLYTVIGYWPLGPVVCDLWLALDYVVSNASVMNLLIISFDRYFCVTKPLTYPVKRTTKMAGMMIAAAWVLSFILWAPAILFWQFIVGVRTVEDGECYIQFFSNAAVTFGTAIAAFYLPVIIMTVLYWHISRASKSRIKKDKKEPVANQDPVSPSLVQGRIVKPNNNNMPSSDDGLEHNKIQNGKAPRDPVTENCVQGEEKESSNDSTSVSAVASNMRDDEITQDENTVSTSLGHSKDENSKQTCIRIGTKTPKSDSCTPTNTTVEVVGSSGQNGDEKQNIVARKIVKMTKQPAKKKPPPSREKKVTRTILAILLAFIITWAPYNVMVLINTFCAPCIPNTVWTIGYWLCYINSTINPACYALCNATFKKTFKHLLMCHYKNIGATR
In words: Antagonist potency at muscarinic receptor M2 in guinea pig atrium. It is filed as functional, tissue-based. As to conditions: Cavia porcellus; Cardiac atrium; target entry is the homologue from another species.

Assay [9] addresses Muscarinic acetylcholine receptor M3 (Cavia porcellus) (UniProt Q8VH26). As to the kind of experiment: Antagonist potency at muscarinic receptor M3 in guinea pig ileum. It counts as functional, tissue-based.
Assay [10] addresses Acetylcholinesterase (Homo sapiens, UniProt P22303). In words: Inhibition of human erythrocyte recombinant AchE after 20 mins.
The target of assay [11] is Cholinesterase (Homo sapiens, UniProt P06276). In words: Inhibition of human serum recombinant BChE after 20 mins.
For assay [12], the target named is T2, Muscarinic acetylcholine receptor M1 (Homo sapiens, UniProt P11229).
T2 sequence (P11229 whole entry): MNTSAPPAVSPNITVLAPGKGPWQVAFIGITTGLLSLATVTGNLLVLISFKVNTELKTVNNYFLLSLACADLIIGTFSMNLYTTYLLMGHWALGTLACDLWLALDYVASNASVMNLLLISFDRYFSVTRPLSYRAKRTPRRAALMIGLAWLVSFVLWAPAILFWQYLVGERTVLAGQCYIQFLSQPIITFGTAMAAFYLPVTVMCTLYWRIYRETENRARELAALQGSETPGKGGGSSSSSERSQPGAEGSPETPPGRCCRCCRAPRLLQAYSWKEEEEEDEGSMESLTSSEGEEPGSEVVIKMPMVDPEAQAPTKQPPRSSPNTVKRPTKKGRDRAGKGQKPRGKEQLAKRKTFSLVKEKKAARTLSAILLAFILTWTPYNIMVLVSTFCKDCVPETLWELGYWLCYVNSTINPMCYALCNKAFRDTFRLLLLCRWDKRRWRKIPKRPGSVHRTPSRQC
As to the kind of experiment: Displacement of [3H] N-methyl-scopolamine chloride from human muscarinic receptor M1 expressed in CHO cells. It is filed as cell-based.

The target of assay [13] is Muscarinic acetylcholine receptor M3 (Homo sapiens, UniProt P20309). As to the kind of experiment: Displacement of [3H] N-methyl-scopolamine chloride from human muscarinic receptor M3 expressed in CHO cells. It is filed as cell-based. In general terms: In a radioligand displacement assay an active substance lowers the binding of a labelled ligand.
Assay [14] deals with T3, Muscarinic acetylcholine receptor M5 (Homo sapiens, UniProt P08912).
T3 sequence (P08912 whole entry): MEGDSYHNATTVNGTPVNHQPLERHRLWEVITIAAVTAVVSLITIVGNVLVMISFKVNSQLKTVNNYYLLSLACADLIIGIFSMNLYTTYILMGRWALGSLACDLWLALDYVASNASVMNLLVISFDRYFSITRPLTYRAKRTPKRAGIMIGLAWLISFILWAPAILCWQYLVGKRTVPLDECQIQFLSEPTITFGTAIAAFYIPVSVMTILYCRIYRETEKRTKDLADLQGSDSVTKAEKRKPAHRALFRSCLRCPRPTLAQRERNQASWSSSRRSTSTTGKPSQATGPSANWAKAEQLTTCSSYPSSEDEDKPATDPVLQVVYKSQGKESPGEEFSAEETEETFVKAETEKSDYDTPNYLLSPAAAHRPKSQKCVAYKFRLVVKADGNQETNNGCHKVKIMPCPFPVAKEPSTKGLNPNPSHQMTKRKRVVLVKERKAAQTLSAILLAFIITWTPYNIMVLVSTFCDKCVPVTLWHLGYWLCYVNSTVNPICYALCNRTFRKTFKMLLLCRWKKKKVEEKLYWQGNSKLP
In words: Displacement of [3H] N-methyl-scopolamine chloride from human muscarinic receptor M5 expressed in CHO cells. It counts as cell-based.

The subject of assay [15] is Mus musculus. As to the kind of experiment: Antinociceptive activity in mouse assessed as licking latency at 1.0 ug, icv after 15 mins by hot plate method. It is filed as functional.
Assay [16] concerns Mus musculus. In words: Antinociceptive activity in mouse assessed as licking latency at 0.01 ug, icv after 30 mins by hot plate method. It counts as functional.
The subject of assay [17] is Mus musculus. As to the kind of experiment: Antinociceptive activity in mouse assessed as licking latency at 0.03 ug, icv after 30 mins by hot plate method. It is filed as functional.
In assay [18] the test system is Mus musculus. As to the kind of experiment: Antinociceptive activity in mouse assessed as licking latency at 0.01 ug, icv after 45 mins by hot plate method. It is filed as functional.
Assay [19] has as its system Mus musculus. In words: Antinociceptive activity in mouse assessed as licking latency at 1.0 ug, icv after 45 mins by hot plate method. It counts as functional.
Assay [20] concerns Mus musculus. In words: Antinociceptive activity in mouse assessed as licking latency at 0.1 ug, icv after 45 mins by hot plate method. It counts as functional.
Assay [21] concerns Mus musculus. As to the kind of experiment: Antinociceptive activity in mouse assessed as licking latency at 0.3 ug, icv after 45 mins by hot plate method. It is filed as functional.
The test system of assay [22] is Mus musculus. In words: Antinociceptive activity in mouse assessed as licking latency at 10 ug, icv after 45 mins by hot plate method. It counts as functional.
In assay [23] the test system is Mus musculus. As to the kind of experiment: Antinociceptive activity in mouse assessed as licking latency at 10 ug, icv after 60 mins by hot plate method. It counts as functional.
The species entered for assay [24] is Rattus norvegicus. In words: Increase in Ach release in rat parietal cortex by cerebral microdialysis test. It counts as functional.

The source made the active and inactive calls. No cut-off for these calls is given here.

Chain of Acetylcholinesterase (P22303 whole entry): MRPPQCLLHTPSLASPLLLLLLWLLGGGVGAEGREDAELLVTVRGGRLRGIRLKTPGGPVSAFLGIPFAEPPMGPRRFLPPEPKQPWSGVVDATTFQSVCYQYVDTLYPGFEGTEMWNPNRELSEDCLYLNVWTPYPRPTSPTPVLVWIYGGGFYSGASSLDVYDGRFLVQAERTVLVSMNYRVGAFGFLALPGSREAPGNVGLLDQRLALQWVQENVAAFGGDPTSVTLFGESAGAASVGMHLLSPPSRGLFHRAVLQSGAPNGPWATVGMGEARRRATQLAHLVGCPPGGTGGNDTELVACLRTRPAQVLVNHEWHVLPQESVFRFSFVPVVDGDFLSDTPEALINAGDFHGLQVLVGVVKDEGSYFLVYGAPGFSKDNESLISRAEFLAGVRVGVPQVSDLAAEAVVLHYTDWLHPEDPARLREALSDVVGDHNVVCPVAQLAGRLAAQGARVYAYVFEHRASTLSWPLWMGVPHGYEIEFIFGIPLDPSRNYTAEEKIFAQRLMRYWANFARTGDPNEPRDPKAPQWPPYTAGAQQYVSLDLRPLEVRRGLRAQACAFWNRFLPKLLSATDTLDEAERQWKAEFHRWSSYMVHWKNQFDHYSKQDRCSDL
Chain of Muscarinic acetylcholine receptor M3 (Cavia porcellus) (Q8VH26 1-587): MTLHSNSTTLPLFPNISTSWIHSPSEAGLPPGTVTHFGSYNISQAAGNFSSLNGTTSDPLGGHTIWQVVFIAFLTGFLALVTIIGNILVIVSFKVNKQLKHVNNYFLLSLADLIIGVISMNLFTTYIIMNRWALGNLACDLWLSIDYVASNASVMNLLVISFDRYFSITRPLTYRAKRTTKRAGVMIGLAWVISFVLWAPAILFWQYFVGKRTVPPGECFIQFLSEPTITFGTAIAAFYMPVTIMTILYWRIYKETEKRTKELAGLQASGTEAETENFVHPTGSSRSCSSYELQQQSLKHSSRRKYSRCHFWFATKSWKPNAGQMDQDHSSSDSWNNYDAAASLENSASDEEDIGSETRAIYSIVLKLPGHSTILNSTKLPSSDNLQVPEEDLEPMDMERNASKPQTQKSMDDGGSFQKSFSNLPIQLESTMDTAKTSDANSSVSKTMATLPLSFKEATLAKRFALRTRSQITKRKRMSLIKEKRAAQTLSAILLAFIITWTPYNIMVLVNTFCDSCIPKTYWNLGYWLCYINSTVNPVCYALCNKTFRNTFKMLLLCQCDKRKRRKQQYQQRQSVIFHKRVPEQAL
Chain of Cholinesterase (P06276 whole entry): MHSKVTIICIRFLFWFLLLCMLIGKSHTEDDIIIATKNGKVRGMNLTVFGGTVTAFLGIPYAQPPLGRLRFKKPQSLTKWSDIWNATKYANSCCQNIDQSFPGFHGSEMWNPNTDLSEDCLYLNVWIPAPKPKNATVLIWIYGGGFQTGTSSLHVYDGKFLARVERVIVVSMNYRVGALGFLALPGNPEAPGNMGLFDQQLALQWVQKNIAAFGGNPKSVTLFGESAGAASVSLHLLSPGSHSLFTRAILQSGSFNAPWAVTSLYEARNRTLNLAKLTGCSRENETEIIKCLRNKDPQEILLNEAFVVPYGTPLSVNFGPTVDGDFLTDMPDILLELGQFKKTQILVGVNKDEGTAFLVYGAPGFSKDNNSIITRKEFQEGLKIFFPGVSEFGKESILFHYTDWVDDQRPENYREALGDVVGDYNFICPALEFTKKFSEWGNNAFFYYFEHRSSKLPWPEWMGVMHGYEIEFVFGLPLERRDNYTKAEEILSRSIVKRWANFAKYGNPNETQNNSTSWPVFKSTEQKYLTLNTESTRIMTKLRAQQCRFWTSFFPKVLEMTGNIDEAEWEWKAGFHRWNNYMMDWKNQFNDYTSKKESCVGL
Chain of Muscarinic acetylcholine receptor M3 (P20309 whole entry): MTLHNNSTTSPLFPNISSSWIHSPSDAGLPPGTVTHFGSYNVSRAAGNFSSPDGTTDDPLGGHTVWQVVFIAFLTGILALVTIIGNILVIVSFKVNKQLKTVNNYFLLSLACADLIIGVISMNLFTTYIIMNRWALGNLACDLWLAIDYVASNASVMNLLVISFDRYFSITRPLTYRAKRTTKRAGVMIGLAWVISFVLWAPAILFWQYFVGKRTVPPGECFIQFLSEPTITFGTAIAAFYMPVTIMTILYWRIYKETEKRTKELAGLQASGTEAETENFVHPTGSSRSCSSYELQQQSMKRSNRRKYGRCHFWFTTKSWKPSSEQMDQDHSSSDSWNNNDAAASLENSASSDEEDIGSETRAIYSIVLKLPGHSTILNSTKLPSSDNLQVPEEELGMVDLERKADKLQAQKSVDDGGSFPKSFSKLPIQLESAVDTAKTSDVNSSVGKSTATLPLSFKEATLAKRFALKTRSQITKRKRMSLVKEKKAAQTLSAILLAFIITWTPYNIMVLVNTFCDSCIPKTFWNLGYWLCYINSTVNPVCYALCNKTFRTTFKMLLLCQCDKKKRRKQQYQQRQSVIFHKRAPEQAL

Usually pKb stands for −log10 of the Kb, conventionally taken in molar units. Lower therefore signals a large Kb. By IC50 is commonly meant the concentration needed to halve the response being measured. In general, Ki refers to a measure of affinity in units of concentration, obtained from inhibition or displacement. A lower Ki goes with tighter binding. Consider `COc1ccccc1CNCCCCCCN1CCC(CCC2CCN(CCCCCCNCc3ccccc3OC)CC2)CC1`, for which the Time in assay [1] came to 19.5 s; in [2], 18.6 s; in [3], 24.7 s; in assay [4], 23.8 s; in assay [5] it was 13.3 s; in [6], 25 s. Moreover, the Time is on record as 15.6 s in assay [7]; 19.3 s in assay [15]; 17.1 s in [16]; 19.4 s in [17]; 18.6 s in assay [18]; 18.5 s in [19]. For the same molecule, the Time came to 22.1 s in [20], 20.1 s in [21], 17.7 s in assay [22] and 18.3 s in assay [23]. In addition, the results for the pKb in [8] and in [9] were 7.98 and 6.58, respectively. Further, the IC50 in assay [10] is 1.29 µM; in assay [11], 10.5 µM. Further, the inhibition constant Ki is 0.02 µM in assay [12], 0.214 µM in assay [13] and 0.17 µM in assay [14]. Moreover, the outcome in assay [24] was Active.
